Columns and labels:
[1] = system: model of neuropathic pain; parameters: method as in PMID 33529752; conditions: cited from earlier work
[2] = system: SNI mice; experiment: Mechanical allodynia (Dynamic Plantar Aesthesiometer) in SNI mice; assay type: in vivo
Method: Mice were randomly assigned to each treatment group. […] Maria Novella Romanelli, iBET762 (molibresib; (4S)-6-(4-Chlorophenyl)-N-ethyl-8-methoxy-1-methyl-4H-[1,2,4]triazolo[4,3,a][1,4] benzodiazepine-4-acetamide, and SAHA (vorinostat; suberoylanilide hydroxamic acid) (Sigma-Aldrich, Italy) were administered 15 min before the tests. Drugs were dissolved in 5% DMSO. Drug concentrations were prepared in such a way that the necessary dose could be administered in a volume of 10 µl per mouse by intranasal (i.n.) administration. The experimental protocol to test the effect of treatments on behavioral and in vitro tests included 3 control groups: untreated, vehicle (5% DMSO), and saline.
(§4) For i.n. administration, mice were slightly anesthetized by 2% isoflurane inhalation and placed in a supine position [30]. A 5 μl aliquot of solution (treatments or vehicle) was slowly dropped alternatively to each nostril with a micropipette tip.
Behavioral testing was performed before surgery to establish a baseline for comparison with post-surgical values. Mono-neuropathy was induced by spared nerve injury and this model of pain in mice has been in use for several years [31]. The SNI procedure was performed as previously described [31].
Mechanical allodynia was measured by using Dynamic Plantar Aesthesiometer (Ugo Basile, Bologna, Italy), as described [32]. Nociceptive response for mechanical sensitivity was expressed as mechanical paw withdrawal threshold (PWT) in grams. PWT was quantified by an observer blinded to the treatment.

[3] = biological target: T1, Recombinant Human Bromodomain containing protein 4, bromodomain 1 (BRD4-BD1) (Homo sapiens, UniProt O60885); experiment: AlphaScreen bromodomain binding assay (Reaction Biology), BRD4-1; conditions: ligand Histone H4 peptide (1–21) K5/8/12/16Ac-Biotin; in comparison with (+)-JQ1; read-out: IC50 on BRD4-BD1
T1 construct: bromodomain 1 (aa 44–170); purchased Reaction Biology (RBC) RD-11–140; host or cells: E. coli
Method: (§1) The reader assay is a binding assay using AlphaScreen technology […] assay and was performed by Reaction Biology (www.reactionbiology.com). The biotinylated peptide binding to the reader domain of His-tagged protein is monitored by the singlet oxygen transfer from the Streptavidin-coated donor beads to the AlphaScreen Ni-chelate acceptor beads.
(§2) Reaction buffer: 50 mM Hepes, pH7.5, 100 mM NaCl, 0.05% CHAPS, 0.1% BSA, and 1% DMSO (the final DMSO concentration may differ depending on compound stock and test concentrations).
(§3) Bromodomain: BRD4-1: RBC Cat# RD-11–140: Recombinant Human Bromodomain containing protein 4, bromodomain 1 (aa 44–170; Genbank Accession # NM_058243), expressed in E. coli with N-terminal His-tag. MW = 17.8 kDa; BRD4-2: RBC Cat# RD-11–141: Recombinant Human Bromodomain containing protein 4, bromodomain 2 (aa 349–460;Genbank Accession # NM_058243), expressed in E. coli with N-terminal His-tag. MW = 15.7 kDa. Ligand (C-term-Biotin): Histone H4 peptide (1–21) K5/8/12/16Ac-Biotin. Detection beads: PerkinElmer: Donor beads: Streptavidin-coated donor beads; Acceptor beads: AlphaScreen Ni acceptor beads.
Reaction procedure: • Deliver 2.5X BRD in wells of reaction plate except No BRD control wells. Add buffer instead. • Deliver compounds in 100% DMSO into the BRD mixture by Acoustic technology (Echo550; nanoliter range). […]

[4] = biological target: T2, HDAC1 (Homo sapiens, UniProt Q13547); experiment: HDAC1 immunoprecipitation & activity assay on treated HCT-116 cells; assay type: cell-based; conditions: HCT-116 cells treated at 10 µM for 12 h; in comparison with SAHA
T2 construct: endogenous in cells; host or cells: HCT-116
T2 sequence (Q13547 whole entry): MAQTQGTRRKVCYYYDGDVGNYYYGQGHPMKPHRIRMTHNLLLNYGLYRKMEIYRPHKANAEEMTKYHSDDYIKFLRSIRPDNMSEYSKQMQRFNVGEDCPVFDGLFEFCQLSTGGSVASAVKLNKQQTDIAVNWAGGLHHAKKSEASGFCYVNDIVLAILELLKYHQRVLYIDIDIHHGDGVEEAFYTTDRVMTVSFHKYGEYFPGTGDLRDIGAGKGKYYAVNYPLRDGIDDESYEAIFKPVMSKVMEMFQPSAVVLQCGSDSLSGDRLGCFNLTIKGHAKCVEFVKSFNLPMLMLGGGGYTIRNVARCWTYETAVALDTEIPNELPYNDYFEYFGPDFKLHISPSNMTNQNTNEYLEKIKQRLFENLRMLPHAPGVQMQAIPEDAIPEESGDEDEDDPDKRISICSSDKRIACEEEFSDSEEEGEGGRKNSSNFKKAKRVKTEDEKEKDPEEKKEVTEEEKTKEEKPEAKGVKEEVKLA
Method: HDAC assay: To test the inhibition activity of compounds, the HDAC1 immunoprecipitation (IP) & Activity Assay Kit (Catalog # K342-25; Biovision) was used under the protocol provided by the kit. HCT-116 cell lines were plated in 6 wells and treated with the investigated compounds at 10 µM for 12 h. After incubation, the media was removed, and the cells were washed with PBS (EuroClone) solution (2X). Then, 200 µl/well of lysis buffer with protease inhibitor was added and the cells were scraped and incubated in ice for 30 min. After centrifugation at 10,000 g for 10 min at 4 °C, the supernatant was collected. One hundred micrograms of each extract was incubated with 6 µl of Rabbit HDAC1 antibody and Rabbit IgG and the volume was reached to 500 µl with PBS with protease inhibitors. After incubation at 4 °C overnight a rotary mixer, 25 µl of the protein-A/G bead slurry, previously washed with PBS (2X), was added to the samples and incubated for 1 h at 4 °C. The beads were recovered after 3 washes with 1 ml PBS, by centrifuging at 14,000 g for ~ 10 s and used for HDAC assay.
HDAC assay preparation: For each reaction, 168 µl reaction mix containing HDAC assay buffer and HDAC substrate was prepared, added to the sample and to background control tube, and incubated at 37 °C for 2 h. SAHA was used as a positive control. […] The fluorescence was read at Ex/Em = 380/500 nm with Tecan M1000 plate reader.

[5] = system: SNI mice; experiment: Hargreaves' plantar test, thermal allodynia in SNI mice; assay type: in vivo
Method: as §4
Behavioral testing was performed before surgery to establish a baseline for comparison with post-surgical values.
Thermal nociceptive threshold was measured using Hargreaves’ device, as described [33]. Nociceptive response for thermal sensitivity was expressed as thermal paw withdrawal latency in seconds. All determinations were averaged for each animal.

[6] = biological target: T3, Recombinant Human Bromodomain containing protein 4, bromodomain 2 (BRD4-BD2) (Homo sapiens, UniProt O60885); experiment: AlphaScreen bromodomain binding assay (Reaction Biology), BRD4-2
T3 construct: purchased Reaction Biology (RBC) RD-11–141; host or cells: E. coli
Method: as §1, §2, §3
Reaction procedure: • Deliver 2.5X BRD in wells of reaction plate except No BRD control wells. Add buffer instead. • Deliver compounds in 100% DMSO into the BRD mixture by Acoustic technology (Echo550; nanoliter range). Spin down and pre-incubation for 30 min. • Deliver 5X Ligand. Spin and shake. • Incubate for 30 min at room temperature with gentle shaking. • Deliver 5X donor beads. Spin and shake. • Deliver 5X acceptor beads. Spin and shake. Then gentle shaking in the dark for 60 min. • Alpha measurement (Ex/Em = 680/520–620 nm) in Enspire.

[7] = system: naïve mice; experiment: Hot plate test, acute thermal pain in naïve mice; assay type: in vivo; conditions: 5 to 500 µM i.n.
Description: Mice were randomly assigned to each treatment group. To evaluate the pharmacological profile of SUM35 (N-hydroxy-6-(1-methyl-6-phenyl-4H-benzo[f][1,2,4]triazolo[4,3-a][1,4]diazepin-8-yl)hex-5-ynamide), SUM52 ((S)-N-hydroxy-7-(2-(1-methyl-6-phenyl-4H-benzo[f][1,2,4]triazolo[4,3-a][1,4]diazepin-4-yl)acetamido)heptanamide) (Fig. 1F), synthesized in the laboratory of Prof. Maria Novella Romanelli, iBET762 (molibresib; (4S)-6-(4-Chlorophenyl)-N-ethyl-8-methoxy-1-methyl-4H-[1,2,4]triazolo[4,3,a][1,4] benzodiazepine-4-acetamide, and SAHA (vorinostat; suberoylanilide hydroxamic acid) (Sigma-Aldrich, Italy) were administered 15 min before the tests. Drugs were dissolved in 5% DMSO. Drug concentrations were prepared in such a way that the necessary dose could be administered in a volume of 10 µl per mouse by intranasal (i.n.) administration. The experimental protocol to test the effect of treatments on behavioral and in vitro tests included 3 control groups: untreated, vehicle (5% DMSO), and saline. A representative figure of the experimental protocol in naïve (C) and SNI (F) mice has been inserted in Supplementary Fig. 1.
For i.n. administration, mice were slightly anesthetized by 2% isoflurane inhalation and placed in a supine position. A 5 μl aliquot of solution (treatments or vehicle) was slowly dropped alternatively to each nostril with a micropipette tip.
Animals were habituated to the testing environment daily for at least 2 days before baseline testing. To evaluate onset and progression of pain hypersensitivity, neuropathic mice were monitored by measuring nociceptive responses every 30 min for 3 h before surgery or 3, 7, 10, and 14 days after nerve surgery. Experiments were performed on post-surgery day 7 and 14 when the pain hypersensitivity was well established. Each mouse served as its own control, the responses being measured both before and after surgery. All testing was performed with a blind procedure.

[8] = time-course comparison, combination i-BET762 10 µg, SAHA 3 µg

Compound: O=C(CCCCCCC(=O)Nc1ccccc1)NO [SAHA, suberoylanilide hydroxamic acid]
- time of peak of analgesic activity after administration [1]: 60 min

Compound: Cc1nnc2n1-c1ccc(C#CCCCC(=O)NO)cc1C(c1ccccc1)=NC2 [SUM35, N-hydroxy-6-(1-methyl-6-phenyl-4H-benzo[f][1,2,4]triazolo[4,3-a][1,4]diazepin-8-yl)hex-5-ynamide]
- mechanical antiallodynic activity, ipsilateral side ([2]; 100 µM i.n.): reaching the statistical significance
- mechanical antiallodynic activity, ipsilateral side ([2]; 200 µM i.n.): did not produce any significant increase of pain threshold
- mechanical antiallodynic efficacy compared with SAHA + iBET762 combination [2, 8]: lower antiallodynic activity
- IC50 [3]: 1720 nM
- inhibition of HDAC1 enzymatic activity [4]: Partial inhibition
- thermal antiallodynic activity, ipsilateral side ([5]; 100 µM i.n.): reaching the statistical significance
- thermal antiallodynic activity, ipsilateral side ([5]; 200 µM i.n.): did not produce any significant increase of pain threshold
- thermal antiallodynic efficacy compared with SAHA + iBET762 combination [5, 8]: lower antiallodynic activity
- preference between BRD4-BD1 and BRD4-BD2 domains ([6]; BRD4-BD1 vs BRD4-BD2): preferential interaction for BRD4-BD2
- IC50 ([6]; ligand Histone H4 peptide (1–21) K5/8/12/16Ac-Biotin, in comparison with (+)-JQ1, read-out: IC50 on BRD4-BD2): 118 nM
- thermal antinociceptive effect (hot plate), whole dose range [7]: did not produce any significant increase of the thermal pain threshold

Compound: CCNC(=O)C[C@@H]1N=C(c2ccc(Cl)cc2)c2cc(OC)ccc2-n2c(C)nnc21 [iBET762, (4S)-6-(4-Chlorophenyl)-N-ethyl-8-methoxy-1-methyl-4H-[1,2,4]triazolo[4,3,a][1,4] benzodiazepine-4-acetamide]
- time of peak of analgesic activity after administration [1]: 90 min

Reference: PMC9606187, “Dual HDAC/BRD4 Inhibitors Relieves Neuropathic Pain by Attenuating Inflammatory Response in Microglia After Spared Nerve Injury” (Neurotherapeutics, 2022)
